The values below come from patent US20190387748A1, “COMPOSITIONS AND RELATED METHODS FOR AGRICULTURE” (priority 2017, published 2019).

Entries after “also recorded” stand apart in the source; their conditions may differ.

Data set [1] deals with Sitophilus zeamais weevils. Put plainly: Weevil survival monitoring. Particulars: adult S. zeamais mating pairs; 250 μg/ml or 2.5 mg/ml ciprofloxacin; 18 days. The class given is in vivo.
Data set [2] concerns Sitophilus zeamais weevils. Put plainly: Assessment of offspring: dissection of corn kernels (F1 weevil development). The conditions noted are these: after 25 days. The format is in vivo.
Data set [3] concerns Escherichia coli DH5α. Particulars: kernels soaked in 2.5 or 0.25 mg/ml ciprofloxacin; overnight. The procedure:
The kernels were soaked for 1.5 hours as described herein. After soaking, kernels were air dried and assayed to determine whether the antibiotic was able to coat and penetrate the kernel. To test this, a concentrated sample of Escherichia coli DH5α in water was spread onto 5 Luria Broth (LB) plates. […] The plates were incubated overnight at 37 degrees C. and bacterial growth and/or zone(s) of inhibition were assessed the next day.
A concentrated culture of E. coli was then spread onto LB plates and one of the coated kernels was then placed onto the center of the plate. The plates were incubated overnight, and bacterial growth was assessed the next day.
The plates were incubated overnight and the next day bacterial growth was assessed.

Data set [4] concerns Sitophilus zeamais weevils. In words: Emergence of F1 weevils (fecundity). The conditions noted are these: 2.5 mg/ml ciprofloxacin; till day 43.
Data set [5] has as its system Acyrthosiphon pisum aphids. Put plainly: Aphid survival monitoring. The format is in vivo. From the text:
For each treatment, 33 aphids were placed onto each leaf. Artificial diet feeding systems were changed every 2-3 days throughout the experiment. Aphids were monitored daily for survival and dead aphids were removed from the deep petri dish housing the artificial feeding system when they were discovered.
(§1) Each treatment group received approximately the same number of individuals from each of the collection plant. For each treatment, 20 aphids were placed onto each leaf. Aphids were monitored daily for survival and dead aphids were removed when they were discovered. In addition, the developmental stage (1st, 2nd, 3rd, 4th, 5th instar, and 5R, representing a reproducing 5th instar) was determined daily throughout the experiment. Pictures of aphids were taken throughout the experiment to evaluate size differences between treatment groups.
(Vroma vicia faba from Johnny's Selected Seeds) in a climate-controlled incubator (16 h light/8 h dark photoperiod; 60±5% RH; 25±2° C.). Prior to being used for aphid rearing, fava bean plants were grown in potting soil at 24° C. with 16 h of light and 8 h of darkness. To limit maternal effects or health differences between plants, 5-10 adults from different plants were distributed among 10 two-week-old plants, and allowed to multiply to high density for 5-7 days. For experiments, first and second instar aphids were collected from healthy plants and divided into 2 different treatment groups: 1) negative control (leaf injected with water plus blue food coloring) and 2) leaf injected with 50 μg/ml rifampicin in water plus blue food coloring. Each treatment group received approximately the same number of individuals from each of the collection plants. For treatment, rifampicin stock solution (25 mg/ml in 100% methanol) was diluted to 50 μg/ml in water plus blue food coloring. The solution was then placed into a 1.5 ml Eppendorf tube with a fava bean stem perfused with the solutions and the opening of the tube was closed using parafilm. This feeding system was then placed into a deep petri dish (Fisher Scientific, Cat# FB0875711) and aphids were applied to the leaves of the plant. For each treatment, 74-81 aphids were placed onto each leaf. The feeding systems were changed every 2-3 days throughout the experiment. Aphids were monitored daily for survival and dead aphids were removed from the deep petri dish when they were discovered. In addition, the developmental stage (1st, 2nd, 3rd, 4th, 5th and 5R (5th that has reproduced) instar) was determined daily throughout the experiment.
For each treatment, 49-50 aphids were placed onto each leaf. The feeding systems were changed every 2-3 days throughout the experiment. Aphids were monitored daily for survival and dead aphids were removed from the deep petri dish when they were discovered.
For each treatment, 76-80 aphids were placed onto each leaf. The feeding systems were changed every 2-3 days throughout the experiment. Aphids were monitored daily for survival and dead aphids were removed from the deep petri dish when they were discovered.
For each treatment, 50-51 aphids were placed onto each leaf. The feeding systems were changed every 2-3 days throughout the experiment. Aphids were monitored daily for survival and dead aphids were removed from the deep petri dish when they were discovered.
For each treatment, 56-59 aphids were placed onto each leaf. The feeding systems were changed every 2-3 days throughout the experiment. Aphids were monitored daily for survival and dead aphids were removed from the deep petri dish when they were discovered.
For each treatment, 57-59 aphids were placed onto each leaf. The feeding systems were changed every 2-3 days throughout the experiment. Aphids were monitored daily for survival and dead aphids were removed from the deep petri dish when they were discovered.
For each treatment, 15-87 aphids were placed onto each leaf. Artificial diet feeding systems were changed every 2-3 days throughout the experiment.

Data set [6] concerns Buchnera. Put plainly: qPCR of Buchnera/aphid DNA copy numbers (symbiont titer). The format is in vivo, Buchnera aphidicola. On the procedure: After 7 days of treatment, DNA was extracted from multiple aphids from each treatment group. Briefly, the aphid body surface was sterilized by dipping the aphid into a 6% bleach solution for approximately 5 seconds. Aphids were then rinsed in sterile water and DNA was extracted from each individual aphid using a DNA extraction kit (Qiagen, DNeasy kit) according to manufacturer's instructions. DNA concentration was measured using a nanodrop nucleic acid quantification, and Buchnera and aphid DNA copy numbers were measured by qPCR.
After 6 days of treatment, DNA was extracted from multiple aphids from each treatment group and qPCR for quantifying Buchnera levels was done as described in the previous Example.
After 8 days of treatment, DNA was extracted from multiple aphids from each treatment group. Briefly, the aphid body surface was sterilized by dipping the aphid into a 6% bleach solution for approximately 5 seconds. Aphids were then rinsed in sterile water and DNA was extracted from each individual aphid using a DNA extraction kit (Qiagen, DNeasy kit) according to manufacturer's instructions. DNA concentration was measured using a nanodrop nucleic acid quantification, and Buchnera and aphid DNA copy numbers were measured by qPCR.
After 8 days of treatment, DNA was extracted from the remaining aphids in each treatment group. Briefly, the aphid body surface was sterilized by dipping the aphid into a 6% bleach solution for approximately 5 seconds. Aphids were then rinsed in sterile water and DNA was extracted from each individual aphid using a DNA extraction kit (Qiagen, DNeasy kit) according to manufacturer's instructions. DNA concentration was measured using a nanodrop nucleic acid quantification, and Buchnera and aphid DNA copy numbers were measured by qPCR.
(§2) Briefly, the aphid body surface was sterilized by dipping the aphid into a 6% bleach solution for approximately 5 seconds. Aphids were then rinsed in sterile water and DNA was extracted from each individual aphid using a DNA extraction kit (Qiagen, DNeasy kit) according to manufacturer's instructions. DNA concentration was measured using a nanodrop nucleic acid quantification, and Buchnera and aphid DNA copy numbers were measured by qPCR.
as §2
After 3 days of treatment, DNA was extracted from the remaining living aphids from each treatment group. Briefly, the aphid body surface was sterilized by dipping the aphid into a 6% bleach solution for approximately 5 seconds. Aphids were then rinsed in sterile water and DNA was extracted from each individual aphid using a DNA extraction kit (Qiagen, DNeasy kit) according to manufacturer's instructions. DNA concentration was measured using a nanodrop nucleic acid quantification, and Buchnera and aphid DNA copy numbers were measured by qPCR.
After 5 days of treatment, DNA was extracted from the remaining aphids in each treatment group. Briefly, the aphid body surface was sterilized by dipping the aphid into a 6% bleach solution for approximately 5 seconds. Aphids were then rinsed in sterile water and DNA was extracted from each individual aphid using a DNA extraction kit (Qiagen, DNeasy kit) according to manufacturer's instructions. DNA concentration was measured using a nanodrop nucleic acid quantification, and Buchnera and aphid DNA copy numbers were measured by qPCR.
At 5 days post-treatment, DNA was extracted from several aphids in each treatment group. Briefly, the aphid body surface was sterilized by dipping the aphid into a 6% bleach solution for approximately 5 seconds.

Data set [7] relates to Acyrthosiphon pisum aphids. In words: Aphid developmental stage monitoring. The class given is in vivo. The procedure:
In addition, the developmental stage (1st, 2nd, 3rd, 4th, 5th instar) was determined daily throughout the experiment. Once an aphid reached the 4th instar stage, they were given their own artificial feeding system in a deep petri dish so that fecundity could be monitored once they reached adulthood.
as §1
(Vroma vicia faba from Johnny's Selected Seeds) in a climate-controlled incubator (16 h light/8 h dark photoperiod; 60±5% RH; 25±2° C.). Prior to being used for aphid rearing, fava bean plants were grown in potting soil at 24° C. with 16 h of light and 8 h of darkness. To limit maternal effects or health differences between plants, 5-10 adults from different plants were distributed among 10 two-week-old plants, and allowed to multiply to high density for 5-7 days. […] Aphids were monitored daily for survival and dead aphids were removed from the deep petri dish when they were discovered. In addition, the developmental stage (1st, 2nd, 3rd, 4th, 5th and 5R (5th that has reproduced) instar) was determined daily throughout the experiment.
In addition, the developmental stage (1st, 2nd, 3rd, 4th, 5th, and 5R (5th that has reproduced) instar) was determined daily throughout the experiment.
In addition, the developmental stage (1st, 2nd, 3rd, 4th, 5th, and 5R (5th instar aphids that are reproducing) instar) was determined daily throughout the experiment.
In addition, the developmental stage (1st, 2nd, 3rd, 4th, and 5th instar) was determined daily throughout the experiment.
In addition, the developmental stage (1st, 2nd, 3rd, 4th, 5th, and 5R (5th that has reproduced) instar) was determined daily throughout the experiment. Once an aphid reached the 4th instar stage, they were given their own artificial feeding system in a deep petri dish so that fecundity could be monitored once they reached adulthood.
For each treatment, 30 aphids were placed onto each leaf in triplicate. […] Aphids were monitored daily for survival and dead aphids were removed from the deep petri dish when they were discovered. In addition, the developmental stage (1st, 2nd, 3rd, 4th, 5th, and 5R (5th instar aphids that are reproducing) instar) was determined daily throughout the experiment. […]

The conditions of data set [8]: synthetic cationic NCR peptides; cited from earlier work.
The test system of data set [9] is gram-negative and gram-positive bacteria as well as fungi. Particulars: cited from earlier work.

Take `O=C(O)c1cn(C2CC2)c2cc(N3CCNCC3)c(F)cc2c1=O` [ciprofloxacin]: the Weevil survival entry in data set [1] is “all weevils remained alive for the course of the experiment”. Besides, the results for the “Number of offspring found in dissected corn kernels” value in [2] (250 ug/ml ciprofloxacin) and in [2] (2.5 mg/ml ciprofloxacin) were 13 and 20, respectively. The “Offspring in the larval form” value in [2] (250 ug/ml ciprofloxacin) came out at 38%; in data set [2] (2.5 mg/ml ciprofloxacin), 65%. The “E. coli growth on plates with entire soaked corn kernels” value in data set [3] was “no bacteria grew”. The F1 offspring emerged entry in [4] was “much less offspring that emerged”.

`Cc1cc2c(C(C)C)c(O)c(O)c(C=O)c2c(O)c1-c1c(C)cc2c(C(C)C)c(O)c(O)c(C=O)c2c1O` [gossypol, gossypol acetic acid]: in data set [5] (0.5% gossypol), the “Time by which all aphids succumbed to treatment” value is reported as ≤ 4 days and the “Time of treatment after which aphids began dying” value was 2 days. The “Fold less Buchnera/aphid DNA copies vs control” value in [6] (0.25 and 0.5% of gossypol, through plants, 5 or 13 days) is ~4 fold.

On to `CC(=O)CCC(=O)O` [levulinic acid], for which the Aphid development result in data set [7] (0.03 or 0.3% levulinic acid) was “delayed aphid development”. Further, the Aphid mortality entry in [5] (0.03% levulinic acid, 11-day experiment) is listed as “higher mortality compared to control treated aphids, although the difference did not reach statistical significance”. Further, in [5] (0.03 or 0.3% levulinic acid), the Insect survival result is “decrease in insect survival”. Further, the Aphid survival entry in data set [5] (0.3% levulinic acid, 11-day experiment) is “survival was significantly less”. Also, in data set [6] (0.03 or 0.3% levulinic acid in water, 7 days of treatment), the “Fold less Buchnera/aphid DNA copies vs control” value is ~6 fold. The Buchnera/aphid ratio result in [6] (0.03 or 0.3% levulinic acid, seven and eleven days post-treatment) is given as “reduced endosymbiotic Buchnera”.

Turning to `O=C/C=C/c1ccccc1` [trans-cinnemaldehyde], the Aphid developmental stage result in data set [7] (LSR-1 1st and 2nd instar, 0.05%, 0.5%, 5% trans-cinnemaldehyde in water, leaf perfusion and through plants, by 3 days) is recorded as “delayed aphid development; also recorded: none of the aphids matured past the second instar stage”. Further, the Aphid survival rate result in data set [5] (0.05%, 0.5%, and 5% trans-cinnemaldehyde) was “dose-dependent decrease in survival; also recorded: significantly lower”. Besides, in data set [6] (0.05%, 0.5%, and 5% trans-cinnemaldehyde, 3 days post-treatment), the “Symbiont titer (Buchnera DNA to aphid DNA)” value is “reduced endosymbiotic Buchnera”. For the same compound, the “Fold less Buchnera/aphid DNA copies vs control” value in data set [6] (0.5 and 5% of trans-cinnemaldehyde, 3 days) was ~870 fold. Moreover, the “Buchnera/aphid DNA copies” value in data set [6] (lowest concentration of trans-cinnemaldehyde (0.5%), 3 days) is “high ratios of Buchnera/aphid DNA copies”.

With “NCR335: cationic nodule C-rich peptide (RQMIILRLNTTFRPLNFKMLRFWGQ)”, the pl in data set [8] is 11.22. Besides, the Antimicrobial activity result in data set [9] is “effective against gram-negative and gram-positive bacteria as well as fungi”.
